Data: patent US7632818B2, “Method for treating conditions associated with the Metabolic Syndrome (Syndrome X)” (priority 2003, dated 2009)
Residues, ends and D or L forms follow the SMILES beside them.

Experiments:
[1] = FEBS LET. 383:18 (1996); cited from earlier work
[2] = Forward looking example: Metabolic Syndrome patient with chronic environmental antigen stimulation; type: in vivo, human; conditions: sublingual once every two weeks, with diet, exercise, ACE Inhibitor, Fluconazole; over a year
Source text: The further application of the instant invention is illustrated by the following forward looking examples.
• A young person presents to their physician, on annual physical examination, with a weight gain of 50 pounds, is found to have high blood pressure, and reports vaginal pruritis. Over the past few years, they have lived in an area of major traffic congestion (near an oil refinery). The physician does a physical examination and discovers unusual black pigmented areas in their neck creases (acanthosis nigricans) and orders laboratory tests, including fasting and 2-hour blood glucose, serum triglycerides, serum insulin, a cholesterol profile, C-Reactive Protein, serum fibrinogen, and a vaginal smear for candidiasis. • They are found to have impaired glucose tolerance, elevated serum triglycerides, low HDL and high […] and high C-Reactive Protein and fibrinogen levels. Their vaginal smear is positive for candida albicans. • The physician knows that they are seeing a case of the Metabolic Syndrome which progresses to Diabetes Mellitus and Coronary Heart Disease. They prescribe a weight reduction diabetic diet, physical exercise, an ACE Inhibitor, and Fluconazole. […] They continue their diet and physical exercise and loses weight. They require less high blood pressure medication. The physician continues to monitor their cell-mediated immune function, blood glucose levels, lipid profile, and measures of inflammation, and adjusts their medications appropriately. • The patient continues to lose weight to reach their target weight, blood pressure is controlled, blood glucose is normalized, and their risk of diabetes mellitus and coronary heart disease is reduced.

SMILES	Immunological activity in vitro [1]	Blood glucose [2]	C-Reactive Protein [2]	Cholesterol level [2]
N[C@@H](Cc1ccc(O)cc1)C(=O)NCC(=O)NCC(=O)O [YGG, L-tyrosylglycylglycine] (H-Tyr-Gly-Gly-OH)	immunologically active	–	–	–
N[C@@H](Cc1ccc(O)cc1)C(=O)NCC(=O)O [YG, L-tyrosylglycine]	immunologically active	changes toward normal	reduced	reduced
